Patent publication US6455541B1, “Suppression, by 5-lipoxygenase inhibitors, of bone resorption” (Board of Regents, The University of Texas System, priority 1994, dated 2002)
Values joined by “and” are separate entries in the source; they are usually repeats but may differ in a detail not shown here. Equal entries are not always repeated.

Legend:
neonatal mouse calvariae = assay: Neonatal mouse (murine) calvarial assay, 45Ca release; type: cell-based; conditions: 1,25D3 10^−10M
Protocol: The assay was performed as described by Gowen et al. (1983). Timed pregnant mice were injected with ^45Ca 2 days before parturition. Half-calvaria were removed from the 1-2-day-old pups and preincubated for 24 h in BGJb medium at 37° C. in a humidified atmosphere of 5% CO2 before transfer to fresh media with or without test substances for 48 h. The bones were incubated for a further 72 h and media and bones collected. Bone-resorbing activity was expressed as the percentage of the total ^45Ca released into the medium.

C433 cells = assay: Radioimmunoassay of 5-HETE in C433-conditioned media; type: cell-based, human; conditions: +1,25-(OH)2 vitamin D3 10^−8 M, duplicate
Protocol: The radioimmunoassays for 5-HETE were purchased from Advanced Magnetics, Inc. (Cambridge, Mass.).
C433 cells were grown in 10% fetal bovine serum (Whittaker, Walkersville, Md.) 50% RPMI, 50% McCoys (Flow, McLean, Va.) until a density of 10^4 cells/ml was obtained, at which time the cells were harvested, washed, […] This conditioned medium was applied to a prewetted C18 Sep-Pak (Millipore, Waters, Milford, Mass.), and bound material was extracted using ethyl acetate. This material was dried under nitrogen and resuspended in water, it acetic acid and analyzed by high pressure measure liquid chromatography (HPLC) (Waters, Milford, Mass.) applied to a C8 semipreparative 25 cm×10 mm reverse phase column (Keystone Scientific, Inc., Bellefonte, Pa.) at 2 ml/min. The gradient was 0-100% methanol, 1% acetic acid over 60 min with 6-ml fractions collected. The fractions were dried under nitrogen, and those fractions to be assayed for osteoclast stimulating activity were stabilized with 20 μl of 10% bovine serum albumin. Fractions to be used for gas chromatography-mass spectrometric analysis were prepared for derivatization.
To confirm that C433-conditioned medium contained these 5-LO metabolites and that production was hormonally regulated, radioimmunoassays were performed for 5-HETE using commercially available kits. […]

C=C1/C(=C\C=C2/CCC[C@]3(C)[C@@H]([C@H](C)CCCC(C)(C)O)CC[C@@H]23)C[C@@H](O)C[C@@H]1O [1,25D3, 1,25 dihydroxyvitamin D3]
45Ca release, factor alone (Table IV) (neonatal mouse calvariae; IL-1 1 × 10^−10M): 37.2% | 45Ca release, Factor alone (Table II) (neonatal mouse calvariae; IL-1 5 × 10^−10M, TNF 2 × 10^−10M, Lymphotoxin 5 × 10^−9M, PTH 4 ng/ml): 35.3% and 31.8% and 37.0% | 5-HETE in C433-conditioned media (C433 cells; 6 h): 3.36 pg/mL and 3.53 pg/mL | 5-HETE in C433-conditioned media (C433 cells; 12 h): 11.07 pg/mL and 11.68 pg/mL
